Results taken from PubChem BioAssay (NCI).
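Five compound concentrations were applied to cells in 96-well plates for 48 hours; endpoints were derived by simple linear interpolation of the resulting dose-response curve. TGI marks complete inhibition of growth.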

Key:
Assay in all cases: inhibition of tumour cell growth, NCI panel, 48 h
786-0 renal = tested on: 786-0 renal
A498 renal = tested on: A498 renal
A549 NSCLC = tested on: A549 NSCLC
ACHN renal = tested on: ACHN renal
CAKI-1 renal = tested on: CAKI-1 renal
CCRF-CEM leukemia = tested on: CCRF-CEM leukemia
COLO 205 colon = tested on: COLO 205 colon
DU-145 prostate = tested on: DU-145 prostate
EKVX NSCLC = tested on: EKVX NSCLC
HCC-2998 colon = tested on: HCC-2998 colon
HCT-116 colon = tested on: HCT-116 colon
HCT-15 colon = tested on: HCT-15 colon
HOP-62 NSCLC = tested on: HOP-62 NSCLC
HOP-92 NSCLC = tested on: HOP-92 NSCLC
HS 578T breast = tested on: HS 578T breast
HT29 colon = tested on: HT29 colon
IGROV1 ovarian = tested on: IGROV1 ovarian
K-562 leukemia = tested on: K-562 leukemia
KM12 colon = tested on: KM12 colon
LOX IMVI melanoma = tested on: LOX IMVI melanoma
M14 melanoma = tested on: M14 melanoma
MALME-3M melanoma = tested on: MALME-3M melanoma
MCF7 breast = tested on: MCF7 breast
MDA-MB-231 breast = tested on: MDA-MB-231 breast
MDA-MB-435 = tested on: MDA-MB-435
MDA-N = tested on: MDA-N
NCI-H226 lung = tested on: NCI-H226 lung
NCI-H23 lung = tested on: NCI-H23 lung
NCI-H460 lung = tested on: NCI-H460 lung
NCI-H522 lung = tested on: NCI-H522 lung
NCI/ADR-RES ovarian = tested on: NCI/ADR-RES ovarian
OVCAR-3 ovarian = tested on: OVCAR-3 ovarian
OVCAR-4 ovarian = tested on: OVCAR-4 ovarian
OVCAR-5 ovarian = tested on: OVCAR-5 ovarian
OVCAR-8 ovarian = tested on: OVCAR-8 ovarian
PC-3 prostate = tested on: PC-3 prostate
RPMI-8226 leukemia = tested on: RPMI-8226 leukemia
RXF 393 renal = tested on: RXF 393 renal
SF-268 CNS = tested on: SF-268 CNS
SF-295 CNS = tested on: SF-295 CNS
SF-539 CNS = tested on: SF-539 CNS
SK-MEL-2 melanoma = tested on: SK-MEL-2 melanoma
SK-MEL-28 melanoma = tested on: SK-MEL-28 melanoma
SK-MEL-5 melanoma = tested on: SK-MEL-5 melanoma
SK-OV-3 ovarian = tested on: SK-OV-3 ovarian
SN12C renal = tested on: SN12C renal
SNB-19 CNS = tested on: SNB-19 CNS
SNB-75 CNS = tested on: SNB-75 CNS
SW-620 colon = tested on: SW-620 colon
T-47D breast = tested on: T-47D breast
TK-10 renal = tested on: TK-10 renal
U251 CNS = tested on: U251 CNS
UACC-257 melanoma = tested on: UACC-257 melanoma
UACC-62 melanoma = tested on: UACC-62 melanoma
BT-549 breast = tested on: BT-549 breast
HL-60(TB) leukemia = tested on: HL-60(TB) leukemia
MOLT-4 leukemia = tested on: MOLT-4 leukemia
SR leukemia = tested on: SR leukemia
UO-31 renal = tested on: UO-31 renal

CC(=O)Nc1c(C(=N)C#N)ncn1CCO
TGI (786-0 renal): > 100 µM
TGI (A498 renal): > 100 µM
TGI (A549 NSCLC): > 100 µM
TGI (ACHN renal): > 100 µM
TGI (CAKI-1 renal): > 100 µM
TGI (CCRF-CEM leukemia): > 100 µM
TGI (COLO 205 colon): > 100 µM
TGI (DU-145 prostate): > 100 µM
TGI (EKVX NSCLC): > 100 µM
TGI (HCC-2998 colon): > 100 µM
TGI (HCT-116 colon): > 100 µM
TGI (HCT-15 colon): > 100 µM
TGI (HOP-62 NSCLC): > 100 µM
TGI (HOP-92 NSCLC): > 100 µM
TGI (HS 578T breast): > 100 µM
TGI (HT29 colon): > 100 µM
TGI (IGROV1 ovarian): > 100 µM
TGI (K-562 leukemia): > 100 µM
TGI (KM12 colon): > 100 µM
TGI (LOX IMVI melanoma): > 100 µM
TGI (M14 melanoma): > 100 µM
TGI (MALME-3M melanoma): > 100 µM
TGI (MCF7 breast): > 100 µM
TGI (MDA-MB-231 breast): > 100 µM
TGI (MDA-MB-435): > 100 µM
TGI (MDA-N): > 100 µM
TGI (NCI-H226 lung): > 100 µM
TGI (NCI-H23 lung): > 100 µM
TGI (NCI-H460 lung): > 100 µM
TGI (NCI-H522 lung): > 100 µM
TGI (NCI/ADR-RES ovarian): > 100 µM
TGI (OVCAR-3 ovarian): > 100 µM
TGI (OVCAR-4 ovarian): > 100 µM
TGI (OVCAR-5 ovarian): > 100 µM
TGI (OVCAR-8 ovarian): > 100 µM
TGI (PC-3 prostate): > 100 µM
TGI (RPMI-8226 leukemia): > 100 µM
TGI (RXF 393 renal): > 100 µM
TGI (SF-268 CNS): > 100 µM
TGI (SF-295 CNS): > 100 µM
TGI (SF-539 CNS): > 100 µM
TGI (SK-MEL-2 melanoma): > 100 µM
TGI (SK-MEL-28 melanoma): > 100 µM
TGI (SK-MEL-5 melanoma): > 100 µM
TGI (SK-OV-3 ovarian): > 100 µM
TGI (SN12C renal): > 100 µM
TGI (SNB-19 CNS): > 100 µM
TGI (SNB-75 CNS): > 100 µM
TGI (SW-620 colon): > 100 µM
TGI (T-47D breast): > 100 µM
TGI (TK-10 renal): > 100 µM
TGI (U251 CNS): > 100 µM
TGI (UACC-257 melanoma): > 100 µM
TGI (UACC-62 melanoma): > 100 µM

O=C1c2c(Br)sc(Br)c2C(=O)C1(O)O
TGI (786-0 renal): > 100 µM
TGI (A498 renal): > 100 µM
TGI (A549 NSCLC): > 100 µM
TGI (ACHN renal): > 100 µM
TGI (BT-549 breast): 37.9 µM
TGI (CAKI-1 renal): 33.3 µM
TGI (CCRF-CEM leukemia): 85 µM
TGI (COLO 205 colon): 50.7 µM
TGI (DU-145 prostate): > 100 µM
TGI (EKVX NSCLC): > 100 µM
TGI (HCC-2998 colon): > 100 µM
TGI (HCT-116 colon): 38.4 µM
TGI (HCT-15 colon): 73.4 µM
TGI (HL-60(TB) leukemia): > 100 µM
TGI (HOP-62 NSCLC): > 100 µM
TGI (HOP-92 NSCLC): 34.7 µM
TGI (HS 578T breast): > 100 µM
TGI (HT29 colon): > 100 µM
TGI (IGROV1 ovarian): > 100 µM
TGI (K-562 leukemia): 79.8 µM
TGI (KM12 colon): > 100 µM
TGI (LOX IMVI melanoma): > 100 µM
TGI (M14 melanoma): 33.6 µM
TGI (MALME-3M melanoma): 34.6 µM
TGI (MCF7 breast): > 100 µM
TGI (MDA-MB-435): 38.9 µM
TGI (MDA-N): > 100 µM
TGI (MOLT-4 leukemia): 93.5 µM
TGI (NCI-H226 lung): > 100 µM
TGI (NCI-H23 lung): 99.6 µM
TGI (NCI-H460 lung): > 100 µM
TGI (NCI-H522 lung): 37.3 µM
TGI (NCI/ADR-RES ovarian): > 100 µM
TGI (OVCAR-3 ovarian): 35.9 µM
TGI (OVCAR-4 ovarian): 34.3 µM
TGI (OVCAR-5 ovarian): 50.3 µM
TGI (OVCAR-8 ovarian): > 100 µM
TGI (PC-3 prostate): 51.1 µM
TGI (RPMI-8226 leukemia): > 100 µM
TGI (RXF 393 renal): 37.6 µM
TGI (SF-268 CNS): > 100 µM
TGI (SF-295 CNS): > 100 µM
TGI (SF-539 CNS): 39.4 µM
TGI (SK-MEL-2 melanoma): 86.7 µM
TGI (SK-MEL-28 melanoma): > 100 µM
TGI (SK-MEL-5 melanoma): 42.6 µM
TGI (SK-OV-3 ovarian): > 100 µM
TGI (SN12C renal): > 100 µM
TGI (SNB-19 CNS): > 100 µM
TGI (SNB-75 CNS): > 100 µM
TGI (SR leukemia): 57.4 µM
TGI (SW-620 colon): > 100 µM
TGI (T-47D breast): 49.4 µM
TGI (TK-10 renal): > 100 µM
TGI (U251 CNS): > 100 µM
TGI (UACC-257 melanoma): 37.4 µM
TGI (UACC-62 melanoma): > 100 µM
TGI (UO-31 renal): 58.2 µM
